Measured values from US9499511B2, “N-substituted hydroxylamine derivatives with carbon-based leaving groups” (The Johns Hopkins University, priority 2011, dated 2016).
Counter-ions that a name gives are not always drawn.

Key:
[1] = comparison value; cited from earlier work
[2] = Decomposition kinetics monitored by UV-Vis spectroscopy; format: physicochemical
Experimental: NMR spectra were obtained on a Bruker Avance 400 MHz FT-NMR spectrometer. […] High-resolution mass spectra were obtained on a VG Analytical VG70SE magnetic sector mass spectrometer operating in fast atom bombardment (FAB) mode. […] Phosphate-buffered saline (PBS) solutions (0.1 M) were prepared with 140 mM NaCl and 3 mM KCl, with 100 μM diethylenetriaminepentaacetic acid (DTPA), adjusted to pH 7.4.

Sprague-Dawley rats = assay: Acute cardiovascular effects, pressure-volume (PV) loop analysis in anesthetized rats; format: in vivo, rat; settings: IV infusion 100 μg/kg/min, 5 rats
Experimental: The acute cardiovascular effects of compounds 4a and 6a, when administered intravenously to Sprague-Dawley rats at an infusion rate of 100 μg/kg/min, were examined by means of pressure-volume (PV) curve (loops) analysis. PV families/relationships were generated via pre-load variation and hemodynamic indices were compared to baseline values. Each test article was administered to 5 rats.
Rats were intraperitoneally (IP) anesthetized to effect with pentobarbital (˜50 mg/kg), shaved and positioned in dorsal recumbence, endotracheally intubated and ventilated […], ˜2.5 mL tidal volume with 95% O2/5% CO2) with an adjustable small animal ventilator (Harvard Apparatus). Anesthesia was maintained with a continuous pentobarbital infusion (to effect, ˜3 to 5 mg/kg/h, IV) until completion of the experiment via an indwelling catheter placed in a femoral vein. Subsequently, transthoracic needle electrodes forming a single-lead ECG were placed. For LV mechano-energetic evaluation, the right carotid artery was isolated, dissected free from the surrounding tissue, and cannulated with a 2F high-fidelity conductance/micromanometer catheter (Millar Instruments). This catheter was advanced retrograde across the aortic valve and into the LV chamber in order to simultaneously determine left-ventricular pressure and volume (via conductivity). […] Meanwhile, in order to record arterial pressures, a 2F high-fidelity micromanometer catheter (Millar Instruments) was inserted into a femoral artery and advanced towards the abdominal aorta. Finally, an in-dwelling catheter was placed into the jugular vein for administration of test article.
Following collection of baseline hemodynamic data, infusion of test article was initiated at an infusion rate of 100 μg/kg/min; at 10 μL/min. Pressure-volume analyses were performed again approximately 30 min and 45 min after the initiation of the dose.
The resulting left-ventricular pressure and volume data was analyzed offline (IOX/ECG Auto; EMKA Technologies) in order to generate relationships representing the contractile and energetic state of the myocardium. Systolic (SAP), diastolic (DAP), and mean (MAP) arterial pressures were collected. Left-ventricular mechanical and/or geometrical indices were obtained from the pressure (ESP, EDP, dP/dt max/min, time-constant of relaxation—tau [based on mono-exponential decay with non-zero asymptote]) and volume (ESV, EDV, SV) signal. In addition, the following measurements were derived from left-ventricular pressure-volume data (PV loops) generated during brief periods of preload reduction: • Pressure volume area (PVA) and stroke work (SW). • End-systolic (ESPVR) and end-diastolic (EDPVR) pressure volume relationships. • End systolic pressure and stroke volume relationship (Arterial Elastance, Ea).
Data are presented as means with standard errors (mean±SEM) in Table 6.

[3] = Decomposition monitored by 1H NMR spectroscopy (carbanion yield, kinetics, half-life); format: physicochemical; settings: 10% D2O
Description: […] In each case, the bottom spectrum was collected at the start of the experiment, and the top spectrum after complete decomposition.
NMR spectra were obtained on a Bruker Avance 400 MHz FT-NMR spectrometer. […] High-resolution mass spectra were obtained on a VG Analytical VG70SE magnetic sector mass spectrometer operating in fast atom bombardment (FAB) mode. […]

[4] = N2O headspace analysis (GC) of HNO production, relative to Angeli's salt; format: physicochemical; settings: for HNO / N2O production (in words): decomposition at pH 7.4; for % HNO: donor 0.1 mM, 37° C., PBS pH 7.4, yield relative to Angeli's salt by N2O headspace analysis, SEM ±5%, n = 3
Experimental: Nitrous oxide is produced via the dimerization and dehydration of HNO, and is the most common marker for HNO production (Fukuto, J. M. et al., Chem. Res. Toxicol. 2005, 18, 790-801).
Gas chromatography was performed on a Varian CP-3800 instrument equipped with a 1041 manual injector, electron capture detector, and a 25 m 5 Å molecular sieve capillary column. Grade 5.0 nitrogen was used as both the carrier (8 mL/min) and the make-up (22 mL/min) gas. The injector oven and the detector oven were kept at 200° C. and 300° C., respectively. All nitrous oxide analyses were performed with the column oven held constant at 150° C. All gas injections were made using a 100 μL gastight syringe with a sample-lock. Samples were prepared in 15 mL amber headspace vials with volumes pre-measured for sample uniformity (actual vial volume ranges from 15.19-15.20 mL). Vials were charged with 5 mL of PBS buffer containing DTPA, purged with argon, and sealed with a rubber septum. The vials were equilibrated for at least 10 minutes at 37° C. in a dry block heater. A 10 mM stock solution of Angeli's salt (AS) was prepared in 10 mM sodium hydroxide, and HNO donors 1a-4a, 6a (10 mM) were prepared in acetonitrile or methanol and used immediately after preparation. From these stock solutions, 50 μL was introduced into individual thermally-equilibrated headspace vials using a gastight syringe, yielding final substrate concentrations of 0.1 mM. Substrates were then incubated long enough to ensure complete decomposition and equilibration of N2O with the headspace. The headspace (60 μL) was then sampled and injected five successive times using a gastight syringe with a sample lock. This was repeated for n≧3 vials per donor. The nitrous oxide yield was averaged and reported relative to the standard, Angeli's salt. For chemical trapping of HNO, glutathione (100 μL of 10 mM in PBS) was added prior to HNO donor addition to give a final glutathione concentration of 0.2 mM, and headspace sampling for N2O was analogously performed as stated above.

[5] = PBS, pH 7.4, Condition B: pH 7.4, 37° C., 0.25M PBS, no chelator, air (1H NMR)
[6] = PBS, pH 7.4, Condition G: pH 7.4, 37° C., 0.25M PBS, 100 μL DTPA, air (1H NMR)

CC1=NN(c2ccccc2)C(=O)C1 [edaravone]
pKa [1]: 7

CO/N=C(\C)C1(NO)C(=O)N(C)C(=O)N(C)C1=O [Compound 4a, 5-(N-hydroxylamine)-5-(acetyl-O-methoxyoxime)-N,N-dimethylbarbituric acid]
half-life ([2]; buffer, pH 4, pH 4.0 and room temperature, read-out: half-life (converted)): ~24 h | half-life ([2]; buffer, pH 7.4, footnote c not given, pH 7.4, 37° C., read-out: t1/2): 0.0117 h | half-life ([2]; buffer, pH 7.4, pH 7.4 and 37° C., read-out: half-life (converted)): ~0.0167 h | pH near which the decomposition rate sharply increases ([2]; decomposition rate as a function of pH at 25° C., UV-Vis): ~8 | Mean Blood Pressure (Sprague-Dawley rats; baseline 124 (4a) / 138 (6a)): 71 mmHg | Stroke Volume (Sprague-Dawley rats; mean, baseline 1 (4a) / 2.2 (6a)): 1.2 relative volume units | End Diastolic Pressure Volume Relationship (Sprague-Dawley rats; mean, baseline 1.7 (4a) / 1.8 (6a)): 1.6 | End Diastolic Pressure (Sprague-Dawley rats; mean, baseline 4.7 (4a) / 4.4 (6a)): 3.4 mmHg | Tau (Sprague-Dawley rats; mean, baseline 8.5 (4a) / 8.7 (6a)): 7.8 ms | Arterial Elastance (Sprague-Dawley rats; mean, baseline 9.2 (4a) / 7.4 (6a)): 4.8 | End Diastolic Volume (Sprague-Dawley rats; mean, baseline 14.6 (4a) / 19.2 (6a)): 15 relative volume units | End Systolic Pressure Volume Relationship (Sprague-Dawley rats; mean, baseline 28.1 (4a) / 23.7 (6a)): 34.1 | Pre-Load Recruitable Stroke Work (Sprague-Dawley rats; mean, baseline 37.6 (4a) / 42.8 (6a)): 54.3 | Diastolic Blood Pressure (Sprague-Dawley rats; mean, baseline 109 (4a) / 121 (6a)): 62 mmHg | Stroke Work (Sprague-Dawley rats; mean, baseline 112 (4a) / 227 (6a)): 74 relative volume units × mmHg | End Systolic Pressure (Sprague-Dawley rats; mean, baseline 134 (4a) / 141 (6a)): 71 mmHg | Systolic Blood Pressure (Sprague-Dawley rats; mean, baseline 147 (4a) / 160 (6a)): 85 mmHg | Pressure Volume Area (Sprague-Dawley rats; mean, baseline 343 (4a) / 590 (6a)): 151 | Heart Rate (Sprague-Dawley rats; mean, baseline 365 (4a) / 340 (6a)): 350 bp, m | Left Ventricular +dP/dt (Sprague-Dawley rats; mean, baseline 6392 (4a) / 7689 (6a)): 3518 mmHg/s | Left Ventricular −dP/dt (Sprague-Dawley rats; mean, baseline −7585 (4a) / −8257 (6a)): −4096 mmHg/s | decomposition rate constant k (single exponential fit) ([3]; 4a to 4b, PBS, pH 7.4, room temperature): 0.0024 s⁻¹ | HNO / N2O production (in words) [4]: high yield of N2O | % HNO [4]: 110%

CC1=NNC(=O)C1(C)NO (stereo not shown) [Compound 12a, 4-(N-hydroxylamine)-4-methyl-5-methyl-pyrazolone]
% remains after 7 d ([3]; Condition G: pH 7.4, 37° C., 0.25M PBS, 100 μL DTPA, air (1H NMR)): 70% remains after 7 d

CC1=NN(C)C(=O)C1(C)NO (stereo not shown) [Compound 9a, 4-(N-hydroxylamine)-4-methyl-N-methyl-5-methyl-pyrazolone]
% remains after 48 h ([3]; Condition F: pH 7.4, 37° C., 0.25M PBS, no chelator, nitrogen (1H NMR)): 84% remains after 48 | half-life [3, 5]: 48 h

CC1=NN(c2ccccc2Cl)C(=O)C1(C)NO (stereo not shown) [Compound 11a, 4-(N-hydroxylamine)-4-methyl-N-(2-chlorophenyl)-5-methyl-pyrazolone]
half-life [3, 6]: 120 h

CC1=NN(c2ccccc2)C(=O)C1(C)NO (stereo not shown) [Compound 8a, 4-(N-hydroxylamine)-4-methyl-N-phenyl-5-methyl-pyrazolone]
half-life [3, 5]: 16 h | half-life ([3]; PBS, pH 7.4, Condition C: pH 7.4, 37° C., 0.25M PBS, 100 μL DTPA, BME (20 equiv.), argon (1H NMR)): 28 h | half-life ([3]; PBS, pH 7.4, Condition D: pH 7.4, 37° C., 0.25M PBS, 100 μL DTPA, GSH (2 equiv.), argon (1H NMR)): 50 h | half-life ([3]; PBS, pH 7.4, Condition E: pH 7.4, 37° C., 0.25M PBS, 100 μL DTPA, 12b (1 equiv.), air (1H NMR)): 100 h

CCC1(NO)C(=O)N(C)C(=O)N(C)C1=O [Compound 3a, 5-(N-hydroxylamine)-5-ethyl-N,N-dimethylbarbituric acid hydrochloride]
HNO / N2O production (in words) [4]: produced little HNO | % HNO [4]: 2%

CO/N=C(\C)C1(NO)C(=O)OC(C)(C)OC1=O [Compound 2a, 5-(N-hydroxylamine)-5-(acetyl-O-methoxyoxime)-Meldrum's acid]
half-life ([2]; PBS, pH 7.4, footnote c not given, pH 7.4, 37° C., read-out: t1/2): 0.015 h | HNO / N2O production (in words) [4]: enhanced HNO yield | % HNO [4]: 25%

CC1=NN(c2ccc(Cl)cc2)C(=O)C1(C)NO (stereo not shown) [Compound 10a, 4-(N-hydroxylamine)-4-methyl-N-(4-chlorophenyl)-5-methyl-pyrazolone]
half-life [3, 6]: 84 h

CC1(C)OC(=O)CC(=O)O1 [Meldrum's acid]
pKa [1]: 4.8

CC1(C)OC(=O)C(C)(NO)C(=O)O1 [Compound 1a, 5-(N-hydroxylamine)-5-methyl-Meldrum's acid hydrochloride monohydrate]
HNO / N2O production (in words) [4]: only trace amounts of N2O | % HNO [4]: 2%

CN1C(=O)CC(=O)N(C)C1=O [N,N-dimethyl barbituric acid]
pKa [1]: 4.7
